From US20090176288A1, “Methods and Compositions for Butanol Production” (priority 2006, published 2009)
Like-named read-outs stand apart in the source and are kept apart here.

Legend:
[1] = test system: BUT-R/1 mutant (ATCC No. PTA-8515); conditions: 3 days, 37° C.
Experimental: (§1) But-R/1 mutant (ATCC No. PTA-8515), a derivative of C. acetobutylicum ATCC 824, was produced via long-term incubation of wild-type C. acetobutylicum 824 in reinforced Clostridium medium (“RCM”) with glucose (0.5%) and butanol (2.5% v/v) under anaerobic conditions at 37° C. When turbidity developed, the bacterial suspension was spread onto RCM agar with 2.5% butanol. […] Mutants were purified twice using RCM agar containing 2.5% of butanol. […] Cells were grown for 3 days in RCM medium in an anaerobic jar at 37° C. Optical density of cell suspensions was measured at 600 nm spectrophotometrically.

[2] = test system: Clostridium acetobutylicum ATCC 824 (wild type); conditions: 3 days, 37° C.
Experimental: as §1

[3] = test system: omrA/pCR-II TOPO/TOP10 E. coli cells
Experimental: Survival rates of E. coli strains with and without the omrA-plasmid were determined. […] For this experiment, the omrA gene was inserted into the expression plasmid pCR-Blunt II-TOPO (invitrogen, Carlsbad, Calif.) hosted by the TOP10 E. coli strain [F-mcrA Δ (mcr-hsdRMS-mcrBC) Φ)80lacZ ΔM15 ΔlacX74 recA1 deoR araD139 Δ (ara-leu)7697 galU galK rpsL (Str^R) endA1 nupG]. The plasmid with no insertion was used as a control. Flasks (50 ml) containing 10 ml of LB broth with 50 μg/ml kanamycin were inoculated with 100 μl of bacterial cells grown overnight at 37° C. in the same medium and incubated at 37° C. with aeration (200 rpm) for 4 hours. Bacterial growth was stopped by adding chloramphenicol (100 μg/ml) and optical density of cell cultures measured spectrophotometrically at 600 nm.

## butanol
[1]; butanol 0.3 % (v/v)
  Growth inhibition, Mutant: 0
[1]; butanol 0.6 % (v/v)
  Growth inhibition, Mutant: 0
[1]; butanol 0.9 % (v/v)
  Growth inhibition, Mutant: 0
[1]; butanol 1.2 % (v/v)
  Growth inhibition, Mutant: 23.2
[1]; butanol 1.5 % (v/v)
  Growth inhibition, Mutant: 73.8
[1]; butanol 1.8 % (v/v)
  Growth inhibition, Mutant: 84.2
[2]; butanol 0.3 % (v/v)
  Growth inhibition, WT: 8.4
[2]; butanol 0.6 % (v/v)
  Growth inhibition, WT: 40.4
[2]; butanol 0.9 % (v/v)
  Growth inhibition, WT: 56.1
[2]; butanol 1.2 % (v/v)
  Growth inhibition, WT: 89.7
[2]; butanol 1.5 % (v/v)
  Growth inhibition, WT: 94.2
[2]; butanol 1.8 % (v/v)
  Growth inhibition, WT: 99.5
[3]; FIG. 2
  resistance to butanol compared with E. coli TOPO10 host cells: slightly more resistant
[3]; FIG. 3, varying levels of butanol
  bacterial survival in presence of butanol compared with host strain with no omrA gene: increased bacterial survival significantly
